Consider 6 compounds from patent US8242167B2, “Mannose derivatives for killing tumor cells” (University of Miami, priority 2006, dated 2012).

For one data set, the system named is SKBR3 cells. Description: Growth inhibitory and cytotoxicity assay in SKBR3 cells under normoxia. Format: cell-based, human. The following applies: for cytotoxicity measured by trypan blue exclusion: SKBR3, 72 hrs, normal oxygen conditions; for reversal of 2-DG toxicity by added sugar: SKBR3, 1 mM sugar with increasing 2-DG, trypan blue exclusion. The method, then:
Cytotoxicity assay and Rapid DNA Content Analysis. Cells were incubated for 24 hr at 37° C. in 5% CO2 at which time drug treatments began and were continued for 72 hr. At this time, attached cells were trypsinized and combined with their respective culture media followed by centrifugation at 400 g for 5 min. Pellets containing the cells were either resuspended in 1.5 ml of a medium/trypan blue mixture for cytotoxicity assays or propidium iodide/hypotonic citrate staining solution for determining the nuclear DNA content and cell cycle by a Coulter XL flow cytometer. A minimum of 10,000 cells were analyzed to generate a DNA distribution histogram.
(§1) Cytotoxicity assay. Cells were incubated for 24 hr at 37° C. in 5% CO2 at which time drug treatments began and continued for 72 hr. At this time, attached cells were trypsinized and combined with their respective culture media followed by centrifugation at 400 g for 5 min. The pellets were resuspended in 1 ml of Hanks solution and analyzed by Vi-Cell (Beckman Coulter, USA) cell viability analyzer.

For the next data set, the system named is 1420, pancreatic cancer. Description: Cytotoxicity under normoxia, 1420. Format: cell-based, human. The following applies: 1420; 1 mM sugar with increasing 2-DG; trypan blue exclusion. The method, then: (§2) Cell types. The Δ^0 cells were isolated by treating osteosarcoma cell line 143B (wt) with ethidium bromide for prolonged periods, as previously described (9). Because the Δ^0 cells are uridine and pyruvate auxotrophs, they were grown in DMEM (GIBCO, USA) supplemented with 10% fetal calf serum, 50 μg/ml of uridine and 100 mM sodium pyruvate. The SKBR3 cell line was obtained from Dr. Joseph Rosenblatt's laboratory at the University of Miami. The pancreatic cancer cell lines 1420 and 1469, the ovarian cancer cell line SKOV3, the cervical cancer cell line HELA, and the osteosarcoma cell line 143B were purchased from ATCC. The non-small cell lung cancer and small cell lung cancer cell lines were derived from patients by Dr. Niramol Savaraj at the University of Miami. SKBR3 and SKOV3 cells were grown in McCoy's 5A medium; 1420, 1469 and 143B were grown in DMEM (GIBCO, USA); and HELA was grown in MEM (GIBCO, USA). The media was supplemented with 10% fetal bovine serum. All cells were grown under 5% CO2 and 37° C.
as §1

The subject of data set [1] is glycoproteins (ConA binding) in SKBR3 cells. Description: HRP-conjugated ConA blot of SKBR3 cell extracts. Format: cell-based, human. Conditions: SKBR3, 48 hr, 8 mM sugar analog. The method, then:
(§3) Western Blot analysis. Cells were plated at 10^4 cell cm^−2 and grown under drug treatment for the indicated times. At the end of the treatment period, cells were collected and lysed with 1% SDS in 80 mM Tris-HCL (ph 7.4) buffer supplemented with a proteinase inhibitor cocktail. DNA was fragmented by sonication and protein concentrations were measured by microBCA protein assay kit (Pierce, USA). Samples were mixed with 2× Laemmli sample buffer (Bio-Rad, USA) and run on a SDS-polyacrylamide gel. Gels were transferred to nitrocellulose membranes (Amersham, USA) and probed with anti-KDEL (Stressgen, Canada) (for Grp78 and Grp94); polyclonal anti-CHOP/[…] (Santa Cruz, USA), polyclonal anti-erbB2 (DAKO, USA). Following probing, membranes were washed and incubated with an HRP conjugated secondary antibody. Chemiluminesence was detected by exposure to film. Where indicated, membranes were stripped with Stripping Buffer (Pierce, USA) and reprobed with anti-actin (Sigma, USA) primary antibody. To analyze conconavalin A (ConA) binding, the membranes were incubated with 0.2 μg/ml HRP-conjugated ConA, and chemiluminescence was detected as described.

For data set [2], the system named is Grp78 and Grp94. Description: Western blot of Grp78 and Grp94 (unfolded protein response) in SKBR3 cells under normoxia. Format: cell-based, human. Conditions: for expression of chaperones Grp78 and Grp94: SKBR3, normoxia, 24 hrs, 8 mM sugar analog, tunicamycin 1 micro g/ml. How it is done:
as §3

Data set [3] concerns Grp78 and Grp94. Description: Western blot of Grp78 and Grp94 in models of hypoxia A, B & C. Format: cell-based. The method, then: as §3
Three in vitro models of hypoxia. We previously characterized three models of anaerobiosis as follows: Model A are tumor cells treated with 0.05 μg/ml of oligomycin (a mitochondrial inhibitor of ATP synthase); Model B are cells that are deficient in mitochondrial DNA and Model C are cells treated in an hypoxic (0.5% O^2) chamber (Reming Bioinstruments, Redfield, N.Y.).

For another data set, the system named is CHOP/GADD154. Description: Western blot of CHOP/GADD154 in SKBR3 cells. The following applies: SKBR3, normoxia, 24 hrs; 8 mM sugar analog. Format: cell-based, human. How it is done: as §3
A further data set concerns erbB2. Description: Western blot of erbB2 in SKBR3 cells. Format: cell-based, human. How it is done:
as §3
In general terms: Immunoblotting shows a protein as a band on a membrane.

The subject of a further data set is tumor cell lines. Description: Toxicity survey of tumor cell lines under normoxic conditions. Format: cell-based. The following applies: for toxicity to select tumor cell types: normoxia. How it is done: as §2, §1
The subject of another data set is fowl plague virus. The following applies: chick embryo fibroblasts infected with fowl plague virus; cited from earlier work.

Take `NC(=O)C(=O)O` [oxamate, reference compound]: the “cytotoxicity measured by trypan blue exclusion” value in the data set on SKBR3 cells was “not toxic”.

Consider `C[C@H](O)[C@@H](O)[C@@H](O)[C@H](O)C=O` [fucose, reference compound], for which the “reversal of 2-DG toxicity by added sugar” value in the data set with SKBR3 cells is reported as “had no effect”; with 1420, pancreatic cancer, “had no effect”.

For the compound tunicamycin [reference compound], the “ConA binding of glycoproteins” value in [1] is given as “decrease ConA binding”. For the same compound, the “expression of chaperones Grp78 and Grp94” value with Grp78 and Grp94 [2] is “both Grp78 and Grp94 are upregulated”. The “synthesis of chaperones Grp78 and Grp94” value with Grp78 and Grp94 [3] (all three hypoxia models (positive control)) is recorded as “induce the synthesis of these chaperones in all three models”. In addition, the “induction of GADD154/CHOP” value in the data set with CHOP/GADD154 is reported as “induced”.

Turning to `O=C(CO)[C@@H](O)[C@H](O)[C@H](O)CO` [fructose, reference compound], the “reversal of 2-DG toxicity by added sugar” value is “had no effect” in the data set with SKBR3 cells and “had no effect” in the data set with 1420, pancreatic cancer.

As for `O=C[C@@H](F)[C@@H](O)[C@H](O)[C@H](O)CO` [2-FDM, 2-deoxy-2-fluoro-mannose], the “cytotoxicity measured by trypan blue exclusion” value with SKBR3 cells was “toxic”. The “rank order in growth inhibiting and killing SKBR3 cells” value in the data set on SKBR3 cells (normoxia) is 2-DG>2-FDM>>>2-FDG. Moreover, the “ConA binding of glycoproteins” value in [1] is on record as “decrease ConA binding”. For the same compound, the “molecular weight of erbB2” value with erbB2 is reported as “decreased the molecular weight of erbB2”. Also, the “expression of chaperones Grp78 and Grp94” value in the data set with Grp78 and Grp94 [2] was “both Grp78 and Grp94 are upregulated”. The “up-regulation of GRP 78 and 94, dose dependence” value with Grp78 and Grp94 [2] (select tumor cells, normoxic conditions) was “up-regulated by 2-DG and 2-FM in a dose-dependent manner”. For the same compound, the “upregulation of the UPR (Grp78, Grp94)” value in the data set on Grp78 and Grp94 [3] (hypoxia model C) is “both chaperones are upregulated”; in the data set with Grp78 and Grp94 [3] (hypoxia models A and B) it was “no significant upregulation of the UPR”. In the data set on CHOP/GADD154, the “induction of GADD154/CHOP” value is listed as “induced”. In the data set with tumor cell lines (4 mM), the “toxicity in 2-DG sensitive and 2-DG resistant cell types” value is on record as “caused toxicity in 2-DG sensitive but not 2-DG resistant cell types”. Besides, the “tumor cell lines undergoing significant cell death” value in the data set on tumor cell lines (6 mM, normal oxygen tension) is 6 out of 15. The “toxicity to select tumor cell types” value with tumor cell lines is “toxic to select tumor cell types growing under normoxia”. For the same compound, the “order of potency to inhibit viral glycoprotein synthesis” value in the data set on fowl plague virus is 2-DG>2-FDM>2-FDG.

Take `O=C[C@@H](Cl)[C@@H](O)[C@H](O)[C@H](O)CO` [2-CM, 2-deoxy-2-chloro-mannose]: in the data set on tumor cell lines, the “toxicity to select tumor cell types” value is given as “toxic to select tumor cell types growing under normoxia”.
